According to patent publication US10072011B2, “Substituted bridged urea analogs as sirtuin modulators” (GlaxoSmithKline Intellectual Property (No.2) Limited, priority 2014, dated 2018):
Like-named read-outs stand apart in the source and are kept apart here.

Molecular target: T1, SIRT1 (Homo sapiens, UniProt Q96EB6)
T1 sequence (Q96EB6 1-747): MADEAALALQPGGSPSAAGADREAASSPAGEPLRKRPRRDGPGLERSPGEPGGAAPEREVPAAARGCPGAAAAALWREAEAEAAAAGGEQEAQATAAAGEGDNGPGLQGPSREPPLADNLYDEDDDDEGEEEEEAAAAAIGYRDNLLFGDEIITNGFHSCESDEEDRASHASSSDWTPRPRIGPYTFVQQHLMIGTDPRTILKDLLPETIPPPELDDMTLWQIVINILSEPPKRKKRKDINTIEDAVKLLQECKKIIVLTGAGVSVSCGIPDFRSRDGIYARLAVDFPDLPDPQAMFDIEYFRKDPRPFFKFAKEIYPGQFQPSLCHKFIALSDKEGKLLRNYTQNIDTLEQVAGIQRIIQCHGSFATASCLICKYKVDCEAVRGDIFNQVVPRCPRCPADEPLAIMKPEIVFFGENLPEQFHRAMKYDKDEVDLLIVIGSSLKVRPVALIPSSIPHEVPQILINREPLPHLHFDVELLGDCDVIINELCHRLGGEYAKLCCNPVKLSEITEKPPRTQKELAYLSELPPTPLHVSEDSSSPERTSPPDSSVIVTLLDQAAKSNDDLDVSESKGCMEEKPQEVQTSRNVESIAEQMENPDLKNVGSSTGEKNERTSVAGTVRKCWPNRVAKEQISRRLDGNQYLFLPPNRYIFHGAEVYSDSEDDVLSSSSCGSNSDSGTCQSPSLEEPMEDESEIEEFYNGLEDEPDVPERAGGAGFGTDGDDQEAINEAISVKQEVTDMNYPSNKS
Assay: Trp mass spectrometry assay of SIRT1 activation (Ac-R-H-K-K(Ac)-W-NH2 peptide)
Format: biochemical
Details: for Emax: 25 min, read-out: TRP MAX RESP (percent maximum fold activation)
Procedure, shortened: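 N-terminal His-tagged human SIRT1, expressed in BL21(DE3) and purified, was incubated 25 min with an acetylated Trp peptide and NAD plus test compound at varying concentrations, then quenched with formic acid. OAADPR or deacetylated peptide was quantified by mass spectrometry versus compound-free control; EC1.5 is the concentration giving 50% activity increase, with percent maximum activation.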

[1] = Trp peptide 0.5 μM, 120 μM βNAD+, 10 nM SIRT1, 25 min at 25° C., relative to control (100%)
[2] = Trp peptide 0.5 μM, 120 μM βNAD+, 10 nM SIRT1, 25 min at 25° C.

Emax [1]	TRP Activity (EC1.5, concentration of test compound that results in 150% activation of SIRT1) [2]	SMILES	Emax
> 150%	A (EC1.5<1 μM)	O=C(NCC(F)(F)F)c1cc(O)c2c(n1)N(C(=O)Nc1ccccn1)[C@H]1CCN2C1 [Example 261, (4S)-9-hydroxy-N5-(pyridin-2-yl)-N7-(2,2,2-trifluoroethyl)-3,4-dihydro-1,4-methanopyrido[2,3-b][1,4]diazepine-5,7(2H)-dicarboxamide]	
< 150%	A (EC1.5<1 μM)	C[C@@H](NC(=O)c1ccc2c(n1)N(C(=O)Nc1cc(CCC(O)CO)ccn1)[C@H]1CCN2C1)C(F)(F)F (single isomer, unassigned) [Example 302]	
> 150%	A (EC1.5<1 μM)	O=C(NCC(F)(F)F)c1nc2c(cc1O)N1CC[C@@H](C1)N2C(=O)Nc1ccccn1 [Example 285, (4S)-8-hydroxy-N5-(pyridin-2-yl)-N7-(2,2,2-trifluoroethyl)-3,4-dihydro-1,4-methanopyrido[2,3-b][1,4]diazepine-5,7(2H)-dicarboxamide]	

The next lines start with the molecule.

SMILES	Emax [1]	TRP Activity (EC1.5, concentration of test compound that results in 150% activation of SIRT1) [2]	Emax
O=C(NC1(CO)CC1)c1ccc2c(n1)N(C(=O)Nc1ccccn1)[C@H]1CCN2C1 [Example 17, (4S)—N7-(1-(hydroxymethyl)cyclopropyl)-N5-(pyridin-2-yl)-3,4-dihydro-1,4-methanopyrido[2,3-b][1,4]diazepine-5,7(2H)-dicarboxamide]	> 150%	B (EC1.5 1-25 μM)	
CC(C)[C@@H](NC(=O)c1ccc2c(n1)N(C(=O)Nc1ccccn1)[C@H]1CCN2C1)C(F)(F)F [Example 29, (4S)—N5-(pyridin-2-yl)-N7-((R)-1,1,1-trifluoro-3-methylbutan-2-yl)-3,4-dihydro-1,4-methanopyrido[2,3-b][1,4]diazepine-5,7(2H)-dicarboxamide]	> 150%	A (EC1.5<1 μM)	
Cc1cc(F)cnc1NC(=O)N1c2nc(C(=O)N[C@H](C)C(F)(F)F)ccc2N2CC[C@H]1C2 [Example 57, (4S)—N5-(5-fluoro-3-methylpyridin-2-yl)-N7-((R)-1,1,1-trifluoropropan-2-yl)-3,4-dihydro-1,4-methanopyrido[2,3-b][1,4]diazepine-5,7(2H)-dicarboxamide]	> 150%	B (EC1.5 1-25 μM)	
CC(NC(=O)c1ccc2c(n1)N(C(=O)Nc1ccccn1)[C@H]1CCN2C1)C1CC1 (single isomer, unassigned) [Example 100]	> 150%	A (EC1.5<1 μM)	
C[C@@H](NC(=O)c1ccc2c(n1)N(C(=O)Nc1ncccn1)[C@H]1CCN2C1)C(F)(F)F [Example 130, (4S)—N5-(pyrimidin-2-yl)-N7-((R)-1,1,1-trifluoropropan-2-yl)-3,4-dihydro-1,4-methanopyrido[2,3-b][1,4]diazepine-5,7(2H)-dicarboxamide]	> 150%	A (EC1.5<1 μM)	
O=C(Nc1ccc(Cl)cn1)N1c2nc(S(=O)(=O)NCC(F)(F)F)ccc2N2CC[C@H]1C2 [Example 277, (4S)—N-(5-chloropyridin-2-yl)-7-(N-(2,2,2-trifluoroethyl)sulfamoyl)-3,4-dihydro-1,4-methanopyrido[2,3-b][1,4]diazepine-5(2H)-carboxamide]		C (EC1.5>25 μM)	< 150%
C[C@@H](NC(=O)c1ccc2c(n1)N(C(=O)Nc1ncco1)[C@H]1CCN2C1)C(F)(F)F [Example 75, (4S)—N5-(oxazol-2-yl)-N7-((R)-1,1,1-trifluoropropan-2-yl)-3,4-dihydro-1,4-methanopyrido[2,3-b][1,4]diazepine-5,7(2H)-dicarboxamide]	> 150%	A (EC1.5<1 μM)	
